From ChEMBL document CHEMBL1909046, “DrugMatrix in vitro pharmacology data”

Key:
D(3) dopamine receptor = D(3) dopamine receptor (Homo sapiens, UniProt P35462); test: DRUGMATRIX: Dopamine D3 radioligand binding (ligand: [3H] Spiperone); format: cell membranes, CHO, Membrane; conditions: cho
[1] = DRUGMATRIX: GABAA, Flunitrazepam, Central radioligand binding (ligand: [3H] Flunitrazepam); format: cell membranes, Rattus norvegicus, Wistar, Brain, Membrane; conditions: Not Active = under 50% inhibition at 10 µM
[2] = target: Sodium-dependent noradrenaline transporter (Homo sapiens, UniProt P23975); test: DRUGMATRIX: Norepinephrine Transporter radioligand binding (ligand: [125I] RTI-55); format: cell membranes, MDCK, Membrane; conditions: Not Active = under 50% inhibition at 10 µM
Sequence of Sodium-dependent noradrenaline transporter (P23975 whole entry): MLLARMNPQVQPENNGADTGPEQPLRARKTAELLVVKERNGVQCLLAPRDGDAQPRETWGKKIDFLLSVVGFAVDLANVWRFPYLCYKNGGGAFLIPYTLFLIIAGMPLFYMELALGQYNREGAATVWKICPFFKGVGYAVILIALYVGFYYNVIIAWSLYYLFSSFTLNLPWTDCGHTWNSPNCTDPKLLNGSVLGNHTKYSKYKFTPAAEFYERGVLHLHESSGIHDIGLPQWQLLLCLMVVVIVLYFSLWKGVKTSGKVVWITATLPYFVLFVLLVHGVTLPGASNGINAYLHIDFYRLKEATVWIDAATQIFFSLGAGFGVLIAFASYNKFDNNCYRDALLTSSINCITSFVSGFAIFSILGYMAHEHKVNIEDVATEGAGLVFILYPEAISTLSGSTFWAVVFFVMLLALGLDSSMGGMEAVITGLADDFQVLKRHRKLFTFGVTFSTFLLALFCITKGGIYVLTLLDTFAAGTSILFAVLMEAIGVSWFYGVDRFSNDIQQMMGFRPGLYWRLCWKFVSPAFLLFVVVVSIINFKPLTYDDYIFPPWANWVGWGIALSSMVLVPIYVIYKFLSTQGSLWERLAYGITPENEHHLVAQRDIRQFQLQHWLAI

[3] = target: T1, Alpha-1A adrenergic receptor (Rattus norvegicus, UniProt P43140); test: DRUGMATRIX: Alpha-1A adrenergic receptor radioligand binding (ligand: prazosin); format: cell membranes, Wistar, Submaxillary gland, Membrane; conditions: Not Active = under 50% inhibition at 10 µM
T1 sequence (P43140 whole entry): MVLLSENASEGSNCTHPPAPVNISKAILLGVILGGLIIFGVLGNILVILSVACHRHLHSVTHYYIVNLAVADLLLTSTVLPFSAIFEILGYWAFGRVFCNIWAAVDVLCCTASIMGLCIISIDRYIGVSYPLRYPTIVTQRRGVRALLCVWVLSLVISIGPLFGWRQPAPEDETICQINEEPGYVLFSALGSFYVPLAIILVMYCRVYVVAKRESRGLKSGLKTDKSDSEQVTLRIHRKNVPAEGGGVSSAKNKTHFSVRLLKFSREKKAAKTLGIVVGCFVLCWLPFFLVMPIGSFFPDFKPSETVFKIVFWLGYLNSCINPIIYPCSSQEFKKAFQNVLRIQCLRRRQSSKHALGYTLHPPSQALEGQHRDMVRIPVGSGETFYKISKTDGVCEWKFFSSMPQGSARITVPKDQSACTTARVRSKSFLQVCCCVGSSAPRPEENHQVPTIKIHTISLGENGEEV

[4] = target: T2, Receptor-type tyrosine-protein phosphatase C (Homo sapiens, UniProt P08575); design: species or system Escherichia coli;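 further: inhibition of CD45 enzyme activity measured using DiFMUP as substrate; in other assays of this panel Not Active means under 50% inhibition at 10 µM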
T2 sequence (P08575 whole entry): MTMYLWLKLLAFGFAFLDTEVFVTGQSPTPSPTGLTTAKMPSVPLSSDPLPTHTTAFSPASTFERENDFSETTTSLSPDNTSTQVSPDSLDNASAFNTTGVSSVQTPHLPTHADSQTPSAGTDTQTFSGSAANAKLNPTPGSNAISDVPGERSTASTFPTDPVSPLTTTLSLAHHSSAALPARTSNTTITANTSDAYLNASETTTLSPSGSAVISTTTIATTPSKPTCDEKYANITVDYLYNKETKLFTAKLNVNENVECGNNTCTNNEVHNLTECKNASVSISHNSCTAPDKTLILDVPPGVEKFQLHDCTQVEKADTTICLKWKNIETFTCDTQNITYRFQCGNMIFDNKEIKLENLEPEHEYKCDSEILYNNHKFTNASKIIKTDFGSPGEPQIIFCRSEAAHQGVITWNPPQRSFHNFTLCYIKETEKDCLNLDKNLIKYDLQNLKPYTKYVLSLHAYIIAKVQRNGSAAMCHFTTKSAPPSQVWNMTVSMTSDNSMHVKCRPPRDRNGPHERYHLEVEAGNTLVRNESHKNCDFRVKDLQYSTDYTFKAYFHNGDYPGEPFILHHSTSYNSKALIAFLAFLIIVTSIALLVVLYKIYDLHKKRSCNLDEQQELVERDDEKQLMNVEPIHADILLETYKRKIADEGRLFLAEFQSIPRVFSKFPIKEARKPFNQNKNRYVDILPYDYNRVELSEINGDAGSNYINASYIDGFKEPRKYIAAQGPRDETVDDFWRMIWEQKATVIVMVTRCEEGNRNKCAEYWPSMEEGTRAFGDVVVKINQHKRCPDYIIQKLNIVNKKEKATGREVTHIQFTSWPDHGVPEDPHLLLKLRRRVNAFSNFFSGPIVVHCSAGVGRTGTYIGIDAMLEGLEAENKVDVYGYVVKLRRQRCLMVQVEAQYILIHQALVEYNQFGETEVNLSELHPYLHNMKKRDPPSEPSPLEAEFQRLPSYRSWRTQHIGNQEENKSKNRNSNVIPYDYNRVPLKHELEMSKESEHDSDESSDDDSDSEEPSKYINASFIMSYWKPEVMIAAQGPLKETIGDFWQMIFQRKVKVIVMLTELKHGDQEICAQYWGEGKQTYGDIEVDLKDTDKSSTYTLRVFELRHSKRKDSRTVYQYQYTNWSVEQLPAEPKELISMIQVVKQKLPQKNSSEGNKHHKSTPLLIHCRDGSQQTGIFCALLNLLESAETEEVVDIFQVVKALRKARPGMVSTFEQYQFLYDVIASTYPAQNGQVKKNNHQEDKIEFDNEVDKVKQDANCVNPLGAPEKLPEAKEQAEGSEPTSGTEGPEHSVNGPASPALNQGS

Sequence of D(3) dopamine receptor (P35462 whole entry): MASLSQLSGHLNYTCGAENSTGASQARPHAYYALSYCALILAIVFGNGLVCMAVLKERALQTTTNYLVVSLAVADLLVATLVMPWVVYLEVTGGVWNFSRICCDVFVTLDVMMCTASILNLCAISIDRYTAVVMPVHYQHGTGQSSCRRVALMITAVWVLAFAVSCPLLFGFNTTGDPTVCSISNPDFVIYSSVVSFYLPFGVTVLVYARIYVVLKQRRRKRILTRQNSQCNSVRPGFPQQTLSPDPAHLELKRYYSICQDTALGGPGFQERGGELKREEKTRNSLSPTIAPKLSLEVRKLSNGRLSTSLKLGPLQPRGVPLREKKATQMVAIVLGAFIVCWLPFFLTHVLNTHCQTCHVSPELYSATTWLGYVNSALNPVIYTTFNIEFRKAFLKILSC

Compound | IC50 (D(3) dopamine receptor) | IC50 [1] | Ki [1] | IC50 ([2]; mdck) | IC50 [3] | IC50 [4] | IC50 ([2]; read-out: IC50) | Ki ([2]; read-out: Ki) | IC50 (D(3) dopamine receptor; read-out: IC50) | Ki (D(3) dopamine receptor; read-out: Ki) | Ki ([2]; mdck) | Ki [3] | Ki [4] | Ki (D(3) dopamine receptor)
CCCOc1ccc(C(=O)OCCN(CC)CC)cc1N [PROPARACAINE] | Not Active | Not Active | Not Active | Not Active | Not Active | Not Active |  |  |  |  |  |  |  | 
CC(C)c1cccc(C(C)C)c1O [PROPOFOL] | Not Active | Not Active | Not Active |  | Not Active | Not Active | 9.39 µM | 9.32 µM |  |  |  |  |  | 
C[C@@H]1O[C@@H](O[C@@H]2C=C3CC[C@@H]4[C@H](CC[C@]5(C)[C@@H](c6ccc(=O)oc6)CC[C@]45O)[C@@]3(C)CC2)[C@H](O)[C@H](O)[C@H]1O [PROSCILLARIDIN] | Not Active | Not Active | Not Active | Not Active | Not Active | Not Active |  |  |  |  |  |  |  | 
Oc1cccc(O)c1O [PYROGALLOL] | Not Active | Not Active | Not Active | Not Active | Not Active | Not Active |  |  |  |  |  |  |  | 
AURANOFIN |  | Not Active | Not Active | Not Active | Not Active | Not Active |  |  | 0.659 µM | 0.224 µM | Not Active | Not Active | Not Active | 
GADOPENTETATE DIMEGLUMINE | Not Active | Not Active | Not Active | Not Active | Not Active | Not Active |  |  |  |  | Not Active | Not Active | Not Active | Not Active
GENTAMICIN | Not Active | Not Active | Not Active | Not Active | Not Active | Not Active |  |  |  |  | Not Active | Not Active | Not Active | Not Active
GRAMICIDIN | Not Active | Not Active | Not Active | Not Active | Not Active | Not Active |  |  |  |  | Not Active | Not Active | Not Active | Not Active
NYSTATIN | Not Active | Not Active | Not Active | Not Active | Not Active | Not Active |  |  |  |  | Not Active | Not Active | Not Active | Not Active
